Measured values taken from ChEMBL document CHEMBL1201862, “PubChem BioAssay data set” (2004).
The source made the active and inactive calls. Rule as the data show it: actives have a measured EC50 and inactives only a lower limit.

Legend:
Streptococcus = experiment: Group A Streptococcus viability loss, dose response, counter-screen for streptokinase expression inhibitor project, luminescence, BacTiterGlo (AID 1915); format: functional, organism-based;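 also: potency for reduction of bacterial viability or growth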
Streptokinase A = biological target: T1, Streptokinase A (Streptococcus pyogenes serotype M1, UniProt P10520); experiment: S. pyogenes streptokinase expression inhibitors, potency, dose response, plasminogen activation absorbance, OD405 (AID 1914); format: functional, Streptococcus pyogenes M1 GAS;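 also: secreted streptokinase activity via plasminogen activation per viability signal from cell pellet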
T1 sequence (P10520 whole entry): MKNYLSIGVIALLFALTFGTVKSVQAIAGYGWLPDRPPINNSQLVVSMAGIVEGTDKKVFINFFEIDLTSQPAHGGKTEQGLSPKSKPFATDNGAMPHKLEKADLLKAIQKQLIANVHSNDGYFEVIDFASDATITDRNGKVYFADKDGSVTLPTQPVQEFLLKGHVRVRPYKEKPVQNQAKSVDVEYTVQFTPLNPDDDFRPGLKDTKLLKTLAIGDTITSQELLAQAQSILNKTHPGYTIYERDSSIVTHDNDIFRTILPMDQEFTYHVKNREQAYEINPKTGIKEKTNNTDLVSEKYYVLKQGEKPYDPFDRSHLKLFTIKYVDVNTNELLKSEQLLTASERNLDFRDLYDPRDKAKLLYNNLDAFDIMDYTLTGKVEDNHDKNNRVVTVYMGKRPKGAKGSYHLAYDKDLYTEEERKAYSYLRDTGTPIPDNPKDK

[1] = C. albicans growth with fluconazole, confirmation, fluorescence, retest (AID 2467); format: functional, cell-based

SMILES | EC50 (Streptococcus) | EC50 (Streptokinase A) | EC50 [1]
O=C(Nc1cccc(NC(=O)c2ccccc2Cl)c1)c1ccc([N+](=O)[O-])o1 | 20.4 µM (inconclusive) | > 150 µM (not active) | 2.84 µM (active)
COc1ccc(CC2=CC(=O)c3ccccc3C2=O)cc1 | 9.74 µM (active) | > 150 µM (not active) | 
Cn1c(O)c(/C=N/NC(=O)c2cc3ccccc3cc2O)c2ccccc21 |  |  | 2.97 µM (active)
